Reference: patent US11345666B2, “Phenyl and pyridinyl substituted imidazoles as modulators of RORγT” (Janssen Pharmaceutica NV, priority 2018, dated 2022)
Blank lines part the entries; values can stand above or below the molecule they belong to.

Columns and labels:
[1] = target: human RORγt ligand binding domain (RORγt LBD) (Homo sapiens (Human), UniProt P51449); assay: RORγt ThermoFluor assay
Description: ThermoFluor® is a fluorescence based assay that estimates ligand binding affinities by measuring the effect of a ligand on protein thermal stability (Pantoliano, M. W., Petrella, E. C., Kwasnoski, J. D., Lobanov, V. S., Myslik, J., Graf, E., Carver, T., Asel, E., Springer, B. A., Lane, P., and Salemme, F. R. (2001) High-density miniaturized thermal shift assays as a general strategy for drug discovery. J Biomol Screen 6, 429-40, and Matulis, D., Kranz, J. K., Salemme, F. R., and Todd, M. J. (2005) Thermodynamic stability of carbonic anhydrase: measurements of binding affinity and stoichiometry using ThermoFluor. Biochemistry 44, 5258-66). This approach is applicable to a wide variety of systems, and rigorous in theoretical interpretation through quantitation of equilibrium binding constants (KD).
The shift in the melting point described as a ΔTm is proportional to the concentration and affinity of the ligand.
RORγt ThermoFluor® Assay Construct
Nucleotides 850-1635 (SEQ ID NO:2) coding for the wild type human RORγt ligand binding domain (RORγt LBD) were cloned into the pHIS 1 vector, a modified pET E. coli expression vector (Accelagen, San Diego), containing an in-frame N-terminal His-tag and a TurboTEV protease cleavage site (ENLYFQG, SEQ ID NO:3) upstream of the cloned insert sequence. The amino acid sequence for the RORγt construct used in the Thermofluor® assay is shown as SEQ ID NO:4.
ThermoFluor® experiments were carried out using instruments owned by Janssen Research and Development, L.L.C. through its acquisition of 3-Dimensional Pharmaceuticals, Inc. 1,8-ANS (Invitrogen) was used as a fluorescent dye. Protein and compound solutions are dispensed into black 384-well polypropylene PCR microplates (Abgene) and overlayed with silicone oil (1 μL, Fluka, type DC 200) to prevent evaporation.
Bar-coded assay plates are robotically loaded onto a thermostatically controlled PCR-type thermal block and then heated at a typical ramp-rate of 1° C./min for all experiments. Fluorescence was measured by continuous illumination with UV light (Hamamatsu LC6) supplied via fiber optic and filtered through a band-pass filter (380-400 nm; >6 OD cutoff). Fluorescence emission of the entire 384-well plate was detected by measuring light intensity using a CCD camera (Sensys, Roper Scientific) filtered to detect 500±25 nm, resulting in simultaneous and independent readings of all 384 wells. Images were collected at each temperature, and the sum of the pixel intensity in a given area of the assay plate was recorded versus temperature. Reference wells contained RORγt without compounds, and the assay conditions were as follows: • 0.065 mg/mL RORγt • 60 μM 1,8-ANS • 100 mM Hepes, pH 7.0 • 10 mM NaCl • 2.5 mM GSH • 0.002% Tween-20
Project compounds were arranged in a pre-dosed mother plate (Greiner Bio-one) wherein compounds are serially diluted in 100% DMSO by 1:2 from a high concentration of 10 mM over 12 columns within a series (column 12 is a reference well containing DMSO, no compound). The compounds were robotically dispensed directly into assay plates (1×=46 nL) using a Hummingbird capillary liquid handling instrument (Digilab). Following compound dispense, protein and dye in buffer was added to achieve the final assay volume of 3 μL, followed by 1 μL of silicone oil.
The binding affinity was estimated as described previously (Matulis, D., Kranz, J. K., Salemme, F. R., and Todd, M. J. (2005) Thermodynamic stability of carbonic anhydrase: measurements of binding affinity and stoichiometry using ThermoFluor®. Biochemistry 44, 5258-66) using the following thermodynamic parameters of protein unfolding: […]

[2] = target: full-length human RORγt (Homo sapiens (Human), UniProt P51449); assay: RORγt (full-length human) reporter assay, conditions A or B; assay type: cell-based; conditions: for inhibition at 3 µM: 3 μM compound concentration (*); for IC50: HEK293T cells, read-out: RORγt (FL) Reporter Assay A or B, IC50; for inhibition at 6 µM: read-out: RORγt (FL) Reporter Assay A or B, % inhibition @ 6 μM, 6 μM compound concentration
Description: RORγt (Full-Length Human) Reporter Assay:
Cells used in this assay were transiently co-transfected with three different plasmids, one expressing the GAL4-DNA binding domain (DBD)-RORγt fusion protein under control of a CMV promoter (NH2-Gal4-DBD:RORC—COOH in pCMV-BD, Stratagene #211342), and two reporter plasmids—the firefly luciferase reporter under control of a GAL4 promoter (pFR-Luc 2×GAL4) and Renilla luciferase reporter under control of CMV promoter (pRL-CMV, Promega #E2261). […] HEK293T cells were plated at 35,000 per well in 96-well plate in medium of DMEM with 10% FBS. After 18-22 hours incubation, the transfection was carried out by using a PEI solution with 170.5 ng total DNA/well (50 ng pCMV-BD-ROR plus 20 ng of pFR-Luc reporter and 0.5 ng of pRL-CMV reporter plus 100 ng Carrier DNA (Clontech #630440) for each well). 4-6 hours after transfection, cells were treated with compounds for overnight in the medium with final concentration of FBS 1.3% and DMSO 0.1%. After overnight (16 to 20 hours) incubation, media were removed and cells were lysed with […] Glo Lysis Buffer (Promega) for 10-15 minutes followed by 10 minute incubation with 50 μL Dual Glo reagent (Promega) at room temperature. Firefly luciferase luminescence was measured using a BMG Pherastar plate reader. To each well, 50 μL Stop and Glo reagent was added and incubated for 10 minutes at room temperature. Renilla luminescence was measured using a BMG Pherastar plate reader. To calculate the effect of compounds on RORγt activity, firefly values were normalized against values of DMSO only and values of reference compound at saturating concentration, then further normalized against Renilla signals. IC50s were generated by plotting final Renilla normalized data against compound concentration and percent inhibition was calculated against DMSO control.
Cells used in this assay were transiently co-transfected with three different plasmids, one expressing the GAL4-DNA binding domain (DBD)-RORγt fusion protein under control of a CMV promoter (NH2-Gal4-DBD:RORC—COOH in pCMV-BD, Stratagene #211342), and two reporter plasmids—the firefly luciferase reporter under control of a GAL4 promoter (pFR-Luc 2×GAL4) and Renilla luciferase reporter under control of CMV promoter (pRL-CMV, Promega #E2261). […] HEK293T cells were plated at 8750 cells per well in 384-well plate in medium of DMEM with 10% FBS. After 18-22 hours incubation, the transfection was carried out by using a PEI solution with 42.6 ng total DNA/well (12.5 ng pCMV-BD-ROR plus 5 ng of pFR-Luc reporter and 0.125 ng of pRL-CMV reporter plus 25 ng Carrier DNA (Clontech #630440) for each well). 4-6 hours after transfection, cells were treated with compounds for overnight in the medium with final concentration of FBS 1.3% and DMSO 0.1%. After overnight (16 to 20 hours) incubation, media were removed and cells were lysed with 20 μL Glo Lysis Buffer (Promega) for 10-15 minutes followed by 10 minute incubation with 20 μL Dual Glo reagent (Promega) at room temperature. Firefly luciferase luminescence was measured using a BMG Pherastar plate reader. To each well, 20 μL Stop and Glo reagent was added and incubated for 10 minutes at room temperature. Renilla luminescence was measured using a BMG Pherastar plate reader. To calculate the effect of compounds on RORγt activity, firefly values were normalized against values of DMSO only and values of reference compound at saturating concentration, then further normalized against Renilla signals. IC50s were generated by plotting final Renilla normalized data against compound concentration and percent inhibition was calculated against DMSO control.

[3] = read-out: RORγt (FL) Reporter Assay A or B, % inhibition

Chain of human RORγt ligand binding domain (RORγt LBD) (P51449 other isoform, or with tags, fused parts or gaps): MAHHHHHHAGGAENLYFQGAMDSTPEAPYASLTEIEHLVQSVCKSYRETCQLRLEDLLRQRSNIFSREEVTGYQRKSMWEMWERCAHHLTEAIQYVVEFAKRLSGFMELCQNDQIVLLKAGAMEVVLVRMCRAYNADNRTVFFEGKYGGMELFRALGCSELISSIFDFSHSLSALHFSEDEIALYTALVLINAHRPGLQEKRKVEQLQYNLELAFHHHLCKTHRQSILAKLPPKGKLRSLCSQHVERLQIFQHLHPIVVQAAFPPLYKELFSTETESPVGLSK
Chain of full-length human RORγt (P51449 other isoform, or with tags, fused parts or gaps): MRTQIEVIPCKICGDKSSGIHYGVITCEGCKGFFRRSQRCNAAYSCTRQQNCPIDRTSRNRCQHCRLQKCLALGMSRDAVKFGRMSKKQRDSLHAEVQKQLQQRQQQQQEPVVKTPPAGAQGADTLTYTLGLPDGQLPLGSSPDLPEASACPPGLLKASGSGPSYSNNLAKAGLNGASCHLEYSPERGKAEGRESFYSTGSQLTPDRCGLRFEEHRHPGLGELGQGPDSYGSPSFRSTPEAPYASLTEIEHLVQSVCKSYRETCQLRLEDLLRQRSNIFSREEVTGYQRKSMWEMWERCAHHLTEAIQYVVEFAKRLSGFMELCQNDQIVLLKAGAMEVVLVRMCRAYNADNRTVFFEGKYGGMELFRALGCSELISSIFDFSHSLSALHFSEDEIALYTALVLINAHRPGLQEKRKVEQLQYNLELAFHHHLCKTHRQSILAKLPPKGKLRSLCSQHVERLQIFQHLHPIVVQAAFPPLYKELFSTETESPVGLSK

SMILES: Cc1nc(C(=O)NC[C@@H]2CC[C@@H](S(C)(=O)=O)C[C@H]2O)c(C#N)n1-c1ccc(CC(C)(C)C(F)(F)F)cc1OC(F)F (racemic) [Example 55, 5-Cyano-1-(2-(difluoromethoxy)-4-(3,3,3-trifluoro-2,2-dimethylpropyl)phenyl)-N-(((1RS,2SR,4SR)-2-hydroxy-4-(methylsulfonyl)cyclohexyl)methyl)-2-methyl-1H-imidazole-4-carboxamide]
Kd [1]: 20 nM
inhibition at 3 µM [2, 3]: 93%
IC50 [2]: 66 nM

SMILES: CCc1nc(C(=O)NC[C@H]2CC[C@H](S(C)(=O)=O)CC2)c(C)n1-c1ccc(CC(C)C(F)(F)F)cc1OC (single isomer, unassigned) [Example 8]
IC50 [2]: 160 nM
inhibition at 0.67 µM ([2]; read-out: RORγt (FL) Reporter Assay A or B, % inhibition, 0.67 μM compound concentration (****)): 66%

SMILES: CCc1nc(C(=O)NC[C@H]2CC[C@H](S(C)(=O)=O)CC2)c(Cl)n1-c1ncc(CCCC(F)(F)F)cc1OC(F)F [Example 48, 5-Chloro-1-(3-(difluoromethoxy)-5-(4,4,4-trifluorobutyl)pyridin-2-yl)-2-ethyl-N-(((1r,4r)-4-(methylsulfonyl)cyclohexyl)methyl)-1H-imidazole-4-carboxamide]
IC50 [2]: 50 nM
inhibition at 6 µM [2]: 104%

SMILES: CCc1nc(C(=O)NC[C@H]2CC[C@H](S(C)(=O)=O)CC2)c(Cl)n1-c1ccc(CC(C)(C)C(F)(F)F)c(F)c1 [Example 103, 5-Chloro-2-ethyl-1-(3-fluoro-4-(3,3,3-trifluoro-2,2-dimethylpropyl)phenyl)-N-(((1r,4r)-4-(methylsulfonyl)cyclohexyl)methyl)-1H-imidazole-4-carboxamide]
Kd [1]: 4.4 nM

SMILES: CCc1nc(C(=O)NC[C@]2(O)CC[C@@H](S(C)(=O)=O)CC2)c(Cl)n1-c1ccc(CC(C(F)(F)F)C(F)(F)F)c(F)c1 [Example 105, 5-Chloro-2-ethyl-1-(3-fluoro-4-(3,3,3-trifluoro-2-(trifluoromethyl)propyl)phenyl)-N-(((1s,4s)-1-hydroxy-4-(methylsulfonyl)cyclohexyl)methyl)-1H-imidazole-4-carboxamide]
inhibition at 0.22 µM ([2]; 0.22 μM compound concentration (******), read-out: RORγt (FL) Reporter Assay A or B, % inhibition): 80%
IC50 [2]: 53 nM

SMILES: CCc1nc(C(=O)NC[C@]2(O)CC[C@@H](S(C)(=O)=O)CC2)c(C#N)n1-c1cnc(CCC(F)(F)F)cc1OC [Example 118, 5-Cyano-2-ethyl-N-(((1s,4s)-1-hydroxy-4-(methylsulfonyl)cyclohexyl)methyl)-1-(4-methoxy-6-(3,3,3-trifluoropropyl)pyridin-3-yl)-1H-imidazole-4-carboxamide]
IC50 [2]: 2400 nM
inhibition at 6 µM [2]: 54%

Continued, values first:

IC50 [2]: 340 nM
inhibition at 6 µM [2]: 98%
SMILES: CCc1nc(C(=O)NC[C@]2(O)CC[C@@H](S(C)(=O)=O)CC2)c(Cl)n1-c1ncc(CCCC(F)(F)F)cc1OC(F)F [Example 47, 5-Chloro-1-(3-(difluoromethoxy)-5-(4,4,4-trifluorobutyl)pyridin-2-yl)-2-ethyl-N-(((1s,4s)-1-hydroxy-4-(methylsulfonyl)cyclohexyl)methyl)-1H-imidazole-4-carboxamide]

IC50 [2]: 120 nM
inhibition at 6 µM [2]: 90%
SMILES: CCc1nc(C(=O)NC[C@]2(O)CC[C@@H](S(C)(=O)=O)CC2)c(C)n1-c1ncc(CC(C)(C)C(F)(F)F)cc1OC(F)F [Example 50, 1-(3-(Difluoromethoxy)-5-(3,3,3-trifluoro-2,2-dimethylpropyl)pyridin-2-yl)-2-ethyl-N-(((1s,4s)-1-hydroxy-4-(methylsulfonyl)cyclohexyl)methyl)-5-methyl-1H-imidazole-4-carboxamide]

inhibition at 6 µM [2]: 78%
SMILES: CCc1nc(C(=O)NC[C@]2(O)CC[C@@H](S(C)(=O)=O)CC2)c(C)n1-c1ncc(CCCC(F)(F)F)cc1OC(F)F [Example 52, 1-(3-(Difluoromethoxy)-5-(4,4,4-trifluorobutyl)pyridin-2-yl)-2-ethyl-N-(((1s,4s)-1-hydroxy-4-(methylsulfonyl)cyclohexyl)methyl)-5-methyl-1H-imidazole-4-carboxamide]

Kd [1]: 5.4 nM
SMILES: CCc1nc(C(=O)NC[C@]2(O)CC[C@@H](S(C)(=O)=O)CC2)c(Cl)n1-c1ccc(CC(C)(C)C(F)(F)F)c(F)c1 [Example 104, 5-Chloro-2-ethyl-1-(3-fluoro-4-(3,3,3-trifluoro-2,2-dimethylpropyl)phenyl)-N-(((1s,4s)-1-hydroxy-4-(methylsulfonyl)cyclohexyl)methyl)-1H-imidazole-4-carboxamide]

inhibition at 3 µM [2, 3]: 85%
SMILES: CCc1nc(C(=O)NC[C@]2(O)CC[C@@H](S(C)(=O)=O)CC2)c(Cl)n1-c1ncc(CC(C)(C)CC(F)(F)F)cc1OC(F)F [Example 107, 5-Chloro-1-(3-(difluoromethoxy)-5-(4,4,4-trifluoro-2,2-dimethylbutyl)pyridin-2-yl)-2-ethyl-N-(((1s,4s)-1-hydroxy-4-(methylsulfonyl)cyclohexyl)methyl)-1H-imidazole-4-carboxamide]
